Residues, ends and D or L forms follow the SMILES beside them.
Experiments:
[1] = molecular target: T1, Orexin/Hypocretin receptor type 1 (Homo sapiens, UniProt O43613); assay: Effective agonist concentration to human orexin receptor type 1 determined using the Xlfit program; type: functional
T1 sequence (O43613 whole entry): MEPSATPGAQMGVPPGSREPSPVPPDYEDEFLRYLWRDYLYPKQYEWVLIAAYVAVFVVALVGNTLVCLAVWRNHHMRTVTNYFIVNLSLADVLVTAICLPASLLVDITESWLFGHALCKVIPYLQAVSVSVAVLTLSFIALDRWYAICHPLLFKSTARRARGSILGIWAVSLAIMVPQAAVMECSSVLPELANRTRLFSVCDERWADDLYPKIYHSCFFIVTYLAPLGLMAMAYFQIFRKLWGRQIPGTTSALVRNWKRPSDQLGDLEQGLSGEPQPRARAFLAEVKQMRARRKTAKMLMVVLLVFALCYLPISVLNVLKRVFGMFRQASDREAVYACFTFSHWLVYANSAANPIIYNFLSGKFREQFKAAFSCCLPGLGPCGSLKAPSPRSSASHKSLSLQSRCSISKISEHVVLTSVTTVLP

[2] = Ratio of orexin-1 receptor to orexin-2 receptor in human
Orexin receptor type 2 = molecular target: T2, Orexin receptor type 2 (Homo sapiens, UniProt O43614); assay: Effective agonist concentration to the human Orexin receptor type 2 was determined using the Xlfit program; type: functional
T2 sequence (O43614 whole entry): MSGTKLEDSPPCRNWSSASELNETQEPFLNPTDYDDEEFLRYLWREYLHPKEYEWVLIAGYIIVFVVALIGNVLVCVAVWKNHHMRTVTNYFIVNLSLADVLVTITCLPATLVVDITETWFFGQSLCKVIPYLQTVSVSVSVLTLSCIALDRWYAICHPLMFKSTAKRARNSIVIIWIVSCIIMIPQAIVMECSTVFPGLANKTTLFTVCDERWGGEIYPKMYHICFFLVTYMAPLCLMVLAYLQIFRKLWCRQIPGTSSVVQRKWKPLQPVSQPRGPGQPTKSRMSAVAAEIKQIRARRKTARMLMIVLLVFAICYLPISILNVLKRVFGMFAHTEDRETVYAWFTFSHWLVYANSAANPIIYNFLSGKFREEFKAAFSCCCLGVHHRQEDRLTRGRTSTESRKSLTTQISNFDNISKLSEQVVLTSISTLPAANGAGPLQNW

Row | Structure (SMILES) | EC50 [1] [µM] | Ratio [2] | EC50 (Orexin receptor type 2) [µM]
1 | CC[C@H](C)[C@H](NC(=O)CNC(=O)[C@H](C)NC(=O)[C@H](C)NC(=O)[C@H](Cc1c[nH]cn1)NC(=O)[C@H](CC(N)=O)NC(=O)CNC(=O)[C@H](CO)NC(=O)[C@H](C)NC(=O)[C@H](CCC(N)=O)NC(=O)[C@H](CC(C)C)NC(=O)[C@H](CC(C)C)NC(=O)[C@H](CCCN=C(N)N)NC(=O)[C@H](CCC(N)=O)NC(=O)[C@H](CC(C)C)NC(=O)[C@H](CCCN=C(N)N)NC(=O)CNC(=O)[C@H](CCC(N)=O)NC(=O)[C@H](CC(C)C)NC(=O)[C@@H]1CCCN1)C(=O)N[C@@H](CC(C)C)C(=O)N[C@H](C(=O)N[C@@H](CCSC)C(=O)O)[C@@H](C)O (H-PLQGRLQRLLQASGNHAAGILTM-OH) | 8.28 | 16.9 | 0.49
2 | CC[C@H](C)[C@H](NC(=O)CNC(=O)[C@H](C)NC(=O)[C@H](C)NC(=O)[C@H](Cc1c[nH]cn1)NC(=O)[C@H](CC(N)=O)NC(=O)CNC(=O)[C@H](CO)NC(=O)[C@H](C)NC(=O)[C@H](CCC(N)=O)NC(=O)[C@H](CC(C)C)NC(=O)[C@H](CC(C)C)NC(=O)[C@H](CCCN=C(N)N)NC(=O)[C@H](CCC(N)=O)NC(=O)[C@H](CC(C)C)NC(=O)[C@H](CCCN=C(N)N)NC(=O)CNC(=O)[C@H](CCC(N)=O)NC(=O)[C@H](CC(C)C)NC(=O)CN)C(=O)N[C@@H](CC(C)C)C(=O)N[C@@H](C)C(=O)N[C@@H](CCSC)C(=O)O (H-GLQGRLQRLLQASGNHAAGILAM-OH) | > 1000 | > 1350 | 0.76
3 | CC[C@H](C)[C@H](NC(=O)CNC(=O)[C@H](C)NC(=O)[C@H](C)NC(=O)[C@H](Cc1c[nH]cn1)NC(=O)[C@H](CC(N)=O)NC(=O)CNC(=O)[C@H](CO)NC(=O)[C@H](C)NC(=O)[C@@H]1CCCN1C(=O)[C@H](CC(C)C)NC(=O)[C@H](CC(C)C)NC(=O)[C@H](CCCN=C(N)N)NC(=O)[C@H](CCC(N)=O)NC(=O)[C@H](CC(C)C)NC(=O)[C@H](CCCN=C(N)N)NC(=O)CNC(=O)[C@H](CCC(N)=O)NC(=O)[C@H](CC(C)C)NC(=O)CN)C(=O)N[C@@H](CC(C)C)C(=O)N[C@H](C(=O)N[C@@H](CCSC)C(=O)O)[C@@H](C)O (H-GLQGRLQRLLPASGNHAAGILTM-OH) | 9.49 | 3.8 | 2.48

Next, values leading:

Row | EC50 [1] [µM] | Ratio [2] | EC50 (Orexin receptor type 2) [µM] | Structure (SMILES)
4 | 0.86 | 0.3 | 2.51 | CC[C@H](C)[C@H](NC(=O)CNC(=O)[C@H](C)NC(=O)[C@H](C)NC(=O)[C@H](Cc1c[nH]cn1)NC(=O)[C@H](CC(N)=O)NC(=O)CNC(=O)[C@H](C)NC(=O)CNC(=O)[C@H](Cc1c[nH]cn1)NC(=O)[C@H](CC(C)C)NC(=O)[C@H](CC(C)C)NC(=O)[C@H](CCC(=O)O)NC(=O)[C@H](Cc1ccc(O)cc1)NC(=O)[C@H](CC(C)C)NC(=O)[C@H](CCCN=C(N)N)NC(=O)[C@H](CS)NC(=O)[C@H](CO)NC(=O)[C@H](CS)NC(=O)[C@@H](NC(=O)[C@H](CCCCN)NC(=O)[C@H](CCC(N)=O)NC(=O)[C@H](CCCN=C(N)N)NC(=O)[C@H](CS)NC(=O)[C@H](CS)NC(=O)[C@H](CC(=O)O)NC(=O)[C@@H]1CCCN1C(=O)[C@H](CC(C)C)NC(=O)[C@@H]1CCCN1)[C@@H](C)O)C(=O)N[C@@H](CC(C)C)C(=O)N[C@H](C(=O)N[C@@H](CC(C)C)C(=O)O)[C@@H](C)O
5 | 8.77 | 13.9 | 0.63 | CC[C@H](C)[C@H](NC(=O)CNC(=O)[C@H](C)NC(=O)[C@H](C)NC(=O)[C@H](Cc1c[nH]cn1)NC(=O)[C@H](CC(N)=O)NC(=O)CNC(=O)[C@H](CO)NC(=O)[C@H](C)NC(=O)[C@H](CCC(N)=O)NC(=O)[C@H](CC(C)C)NC(=O)[C@H](CC(C)C)NC(=O)[C@H](CCCN=C(N)N)NC(=O)[C@H](CCC(N)=O)NC(=O)[C@H](CC(C)C)NC(=O)[C@H](CCCN=C(N)N)NC(=O)CNC(=O)[C@H](CCC(N)=O)NC(=O)[C@H](CC(C)C)NC(=O)CN)C(=O)N1CCC[C@H]1C(=O)N[C@H](C(=O)N[C@@H](CCSC)C(=O)O)[C@@H](C)O (H-GLQGRLQRLLQASGNHAAGIPTM-OH)
6 | 4.84 | 6.5 | 0.75 | CC[C@H](C)[C@H](NC(=O)CNC(=O)[C@H](C)NC(=O)[C@H](C)NC(=O)[C@H](Cc1c[nH]cn1)NC(=O)[C@H](CC(N)=O)NC(=O)CNC(=O)[C@H](CO)NC(=O)[C@H](C)NC(=O)[C@H](CCC(N)=O)NC(=O)[C@H](CC(C)C)NC(=O)[C@H](CC(C)C)NC(=O)[C@H](CCCN=C(N)N)NC(=O)[C@H](CCC(N)=O)NC(=O)[C@H](CC(C)C)NC(=O)[C@H](CCCN=C(N)N)NC(=O)CNC(=O)[C@H](CCC(N)=O)NC(=O)[C@H](CC(C)C)NC(=O)CN)C(=O)N[C@@H](CC(C)C)C(=O)N[C@H](C(=O)N[C@@H](C)C(=O)O)[C@@H](C)O (H-GLQGRLQRLLQASGNHAAGILTA-OH)
7 | 5.89 | 2.6 | 2.28 | CC[C@H](C)[C@H](NC(=O)CNC(=O)[C@H](C)NC(=O)[C@H](C)NC(=O)[C@H](Cc1c[nH]cn1)NC(=O)[C@H](CC(N)=O)NC(=O)CNC(=O)[C@H](CO)NC(=O)[C@H](C)NC(=O)[C@H](CCC(N)=O)NC(=O)[C@H](CC(C)C)NC(=O)[C@H](C)NC(=O)[C@H](CCCN=C(N)N)NC(=O)[C@H](CCC(N)=O)NC(=O)[C@H](CC(C)C)NC(=O)[C@H](CCCN=C(N)N)NC(=O)CNC(=O)[C@H](CCC(N)=O)NC(=O)[C@H](CC(C)C)NC(=O)CN)C(=O)N[C@@H](CC(C)C)C(=O)N[C@H](C(=O)N[C@@H](CCSC)C(=O)O)[C@@H](C)O (H-GLQGRLQRALQASGNHAAGILTM-OH)
